What is called pEC50 is the negative decadic logarithm of the EC50, by convention in mol/L. As usually defined, the Emax is the size of the effect at its maximum, as opposed to the concentration needed.

Experiment [1] addresses T1, human OPRM1 (μ, MOR) (Homo sapiens, UniProt P35372).
T1 construct: host or cells: CHO-K1
It counts as cell-based. The note with it: for ΔRA of compound: relative activity from EC50 and Emax of β-arrestin vs cAMP, lower RA = more G-protein biased. As to the method:
In certain embodiments, the ability of a compound to activate G-protein or β-arrestin is not an on/off switch for a given pathway, but rather a continuous function. To capture this, each compound is measured for activity in cell assays that are linked to β-arrestin recruitment and G-protein signaling. By comparing the activity between these two measures (accounting for both EC50 and maximal response reached, Emax) a relative activity (RA) value is determined.
In the case of MOR it is desirable to have high activation of the G-protein pathway while reducing activation of β-arrestin. In the case of the formula above, this means a lower RA.

Experiment [2] deals with T1, human OPRM1 (μ, MOR). Put plainly: cell-based. The note with it: for pEC50: PathHunter human OPRM1 Arrestin CHO-K1 cell line, read-out: cAMP EC50; for Emax: OPRM1, read-out: cAMP Emax. As to the method:
G-protein signaling was measured via second messenger cAMP modulation. Detection of cAMP modulation was accomplished in the PathHunter human OPRM1 (μ, MOR) Arrestin CHO-K1 cell line using the Dynamic2 cAMP Kit from Cisbio.

Experiment [3] addresses T1, human OPRM1 (μ, MOR). Nature of the experiment: cell-based. The note with it: for pEC50: PathHunter human OPRM1 Arrestin CHO-K1 cell line, read-out: β-Arrestin EC50; for Emax: OPRM1, read-out: β-Arrestin Emax. As to the method:
The Discoverx PathHunter® β-Arrestin assay is used to measure β-arrestin-2 activity. The technology is based on Enzyme Fragment Complementation (EFC) with β-galactosidase (β-Gal) as the reporter. […] EA is fused to Q-arrestin-2, and ED is fused to the C-terminus of the GPCR of interest. When a ligand binds and the GPCR is activated, Q-arrestin-2 is recruited to the receptor resulting in an ED/EA complementation, restoring f-Gal activity, which is measured using chemiluminescence. For this assay, the PathHunter human OPRM1 (μ, MOR) Arrestin CHO-K1 cell line was used.

Each structure is given as a SMILES string. pEC50: −log10 of the molar value. Values joined by “and” are separate entries in the source; they are usually repeats but may differ in a detail not shown here. Equal values may be shown once. Where a name gives a salt, the structure may show the parent alone. Read-outs that look alike come from different tables or passages of the source. A value given as a limit tells only on which side of the number the result lay.

T1 sequence (P35372 whole entry): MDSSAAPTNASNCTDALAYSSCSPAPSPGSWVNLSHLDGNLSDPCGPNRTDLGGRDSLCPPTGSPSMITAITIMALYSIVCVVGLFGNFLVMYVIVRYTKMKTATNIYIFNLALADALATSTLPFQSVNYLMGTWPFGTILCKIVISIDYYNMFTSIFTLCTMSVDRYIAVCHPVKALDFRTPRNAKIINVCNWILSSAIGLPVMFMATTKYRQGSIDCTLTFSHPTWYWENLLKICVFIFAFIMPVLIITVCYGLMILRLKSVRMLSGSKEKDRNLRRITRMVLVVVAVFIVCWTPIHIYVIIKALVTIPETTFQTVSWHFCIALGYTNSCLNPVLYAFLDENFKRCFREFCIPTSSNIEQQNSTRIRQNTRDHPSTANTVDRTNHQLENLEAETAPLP

With `CN(C)C(CNC(=O)N1Cc2ccc(F)cc2C1)c1ccsc1` (single isomer, unassigned) [2a-ent-(+), (+)—N-(2-(Dimethylamino)-2-(thiophen-3-yl)ethyl)-5-fluoroisoindoline-2-carboxamide hydrochloride], at human OPRM1 (μ, MOR) [1] (hydrochloride), the “Bias Factor (ΔRA of compound relative to ΔRA of DAMGO) × 10” value is listed as −9.24. Further, at human OPRM1 (μ, MOR) [1] (hydrochloride), the ΔRA of compound is reported as −2.40. Also, the pEC50 at human OPRM1 (μ, MOR) [2] was 7.74 and 7.24; on human OPRM1 (μ, MOR) [3], 5.97 and 6.00. The “cAMP Emax” value at human OPRM1 (μ, MOR) [2] (hydrochloride) is 99.5, 95.4%. In addition, the “β-Arrestin Emax” value at human OPRM1 (μ, MOR) [3] (hydrochloride) was 6.57, 13.7%.
Turning to `CNC(CNC(=O)N1Cc2ccccc2C1)c1ccccc1` (single isomer, unassigned) [Compound 38-ent-B, (+)—N-(2-(Methylamino)-2-phenylethyl)isoindoline-2-carboxamide], at human OPRM1 (μ, MOR) [1], the “Bias Factor (ΔRA of compound relative to ΔRA of DAMGO) × 10” value is given as under −14.83 and the ΔRA of compound is recorded as under −2.96. Further, on human OPRM1 (μ, MOR) [2], the “cAMP Emax” value is listed as 97.6% and the negative-log EC50 (pEC50) was 6.08. In addition, on human OPRM1 (μ, MOR) [3], the “β-Arrestin Emax” value was 5.9% and the negative logarithm of the EC50 (pEC50) is under 4.00.
For `CN(C)C(CNC(=O)N1Cc2ccccc2C1)c1ccccc1` (single isomer, unassigned) [Compound 57], on human OPRM1 (μ, MOR) [1], the “Bias Factor (ΔRA of compound relative to ΔRA of DAMGO) × 10” value was under −14.83 and the ΔRA of compound is reported as under −2.96. Besides, at human OPRM1 (μ, MOR) [2], the Emax was found to be 89.4% and the pEC50 was 7.14. For the same molecule, at human OPRM1 (μ, MOR) [3], the “β-Arrestin Emax” value is given as under 1% and the pEC50 was under 4.00.
For `CN(C)C(CNC(=O)N1Cc2ccccc2C1)c1ccccc1` (single isomer, unassigned) [Compound 58], on human OPRM1 (μ, MOR) [1], the “Bias Factor (ΔRA of compound relative to ΔRA of DAMGO) × 10” value is −1.66 and the ΔRA of compound was −1.65. In addition, at human OPRM1 (μ, MOR) [2], the “cAMP Emax” value stood at 109.1% and the pEC50 was 6.88. Further, at human OPRM1 (μ, MOR) [3], the “β-Arrestin Emax” value was determined as 35.2% and the negative logarithm of the EC50 (pEC50) is 5.72.
For `CN(C)C(CNC(=O)N1Cc2ccc(F)cc2C1)c1ccsc1` (single isomer, unassigned; (-)) [2a-ent-(−), (−)-N-(2-(Dimethylamino)-2-(thiophen-3-yl)ethyl)-5-fluoroisoindoline-2-carboxamide hydrochloride], on human OPRM1 (μ, MOR) [1] (hydrochloride), the “Bias Factor (ΔRA of compound relative to ΔRA of DAMGO) × 10” value was under −14.83 and the ΔRA of compound is under −2.96. Besides, the negative logarithm of the EC50 (pEC50) at human OPRM1 (μ, MOR) [2] was 7.92 and 7.82. Also, the “cAMP Emax” value on human OPRM1 (μ, MOR) [2] (hydrochloride) is listed as 55.5, 30.4%. Besides, the pEC50 on human OPRM1 (μ, MOR) [3] was under 4.00. Also, the “β-Arrestin Emax” value on human OPRM1 (μ, MOR) [3] (hydrochloride) is on record as under 1%.
For `CNC(CNC(=O)N1Cc2ccccc2C1)c1ccccc1` (single isomer, unassigned; (-)) [Compound 38-ent-A, (−)-N-(2-(Methylamino)-2-phenylethyl)isoindoline-2-carboxamide], on human OPRM1 (μ, MOR) [1], the “Bias Factor (ΔRA of compound relative to ΔRA of DAMGO) × 10” value is under −14.83 and the ΔRA of compound is reported as under −2.96. For the same molecule, on human OPRM1 (μ, MOR) [2], the Emax stood at 81.6% and the pEC50 was 6.42. For the same molecule, at human OPRM1 (μ, MOR) [3], the maximal effect (Emax) turned out to be 3.7% and the pEC50 was under 4.00.
Consider `CN(C)C(CNC(=O)N1Cc2ccccc2C1)c1ccsc1` (stereo not shown) [Compound 1a, N-(2-(Dimethylamino)-2-(thiophen-3-yl)ethyl)isoindoline-2-carboxamide hydrochloride], for which, at human OPRM1 (μ, MOR) [1], the “Bias Factor (ΔRA of compound relative to ΔRA of DAMGO) × 10” value is −5.75 and the ΔRA of compound is on record as −2.06. In addition, at human OPRM1 (μ, MOR) [2], the Emax amounted to 69.2% and the pEC50 was 7.70. On human OPRM1 (μ, MOR) [3], the Emax is 5.67% and the pEC50 is 6.73.
With `CN(C)C(CNC(=O)N1Cc2cccc(F)c2C1)c1ccsc1` (stereo not shown) [Compound 3a, N-(2-(Dimethylamino)-2-(thiophen-3-yl)ethyl)-4-fluoroisoindoline-2-carboxamide hydrochloride], on human OPRM1 (μ, MOR) [1], the “Bias Factor (ΔRA of compound relative to ΔRA of DAMGO) × 10” value is on record as −5.07 and the ΔRA of compound is on record as −1.99. At human OPRM1 (μ, MOR) [2], the maximum response (Emax) is 94.2% and the negative-log EC50 (pEC50) was 7.85. For the same molecule, at human OPRM1 (μ, MOR) [3], the Emax was determined as 21.9% and the pEC50 is 6.51.
With `CN(C)C(CNC(=O)N1Cc2ccc(Cl)cc2C1)c1ccsc1` (stereo not shown) [Compound 4a, 5-Chloro-N-(2-(dimethylamino)-2-(thiophen-3-yl)ethyl)isoindoline-2-carboxamide hydrochloride], the Emax on human OPRM1 (μ, MOR) [2] is 20.7%; at human OPRM1 (μ, MOR) [3], under 1%. Besides, the pEC50 at human OPRM1 (μ, MOR) [2] was under 4.00; at human OPRM1 (μ, MOR) [3], under 4.00.
Consider `COc1ccc2c(c1)CN(C(=O)NCC(c1ccsc1)N(C)C)C2` (stereo not shown) [Compound 5a, N-(2-(Dimethylamino)-2-(thiophen-3-yl)ethyl)-5-methoxyisoindoline-2-carboxamide hydrochloride], for which the Emax was 5% on human OPRM1 (μ, MOR) [2] and under 1% on human OPRM1 (μ, MOR) [3]. The pEC50 on human OPRM1 (μ, MOR) [2] is under 4.00; at human OPRM1 (μ, MOR) [3], under 4.00.
As for `CN(C)C(CNC(=O)N1Cc2cc(F)c(F)cc2C1)c1ccsc1` (stereo not shown) [Compound 6a, N-(2-(dimethylamino)-2-(thiophen-3-yl)ethyl)-5,6-difluoroisoindoline-2-carboxamide hydrochloride], on human OPRM1 (μ, MOR) [1], the “Bias Factor (ΔRA of compound relative to ΔRA of DAMGO) × 10” value is reported as under −14.83 and the ΔRA of compound was under −2.96. Also, on human OPRM1 (μ, MOR) [2], the Emax amounted to 21.9% and the pEC50 was 8.05. Besides, on human OPRM1 (μ, MOR) [3], the Emax is under 1% and the pEC50 is under 4.00.
As to `CN(C)C(CNC(=O)N1CCCc2cc(F)ccc21)c1ccsc1` (stereo not shown) [Compound 7a, N-(2-(dimethylamino)-2-(thiophen-3-yl)ethyl)-6-fluoro-3,4-dihydroquinoline-1(2H)-carboxamide hydrochloride], at human OPRM1 (μ, MOR) [1], the “Bias Factor (ΔRA of compound relative to ΔRA of DAMGO) × 10” value is under −14.83 and the ΔRA of compound is recorded as under −2.96. Moreover, on human OPRM1 (μ, MOR) [2], the maximal effect (Emax) stood at 92.1% and the pEC50 is 6.39. On human OPRM1 (μ, MOR) [3], the maximal response (Emax) is under 1% and the negative-log EC50 (pEC50) is under 4.00.
Take `CN(C)C(CNC(=O)N1CCCc2ccc(F)cc21)c1ccsc1` (stereo not shown) [Compound 8a, N-(2-(dimethylamino)-2-(thiophen-3-yl)ethyl)-7-fluoro-3,4-dihydroquinoline-1(2H)-carboxamide]: at human OPRM1 (μ, MOR) [1], the “Bias Factor (ΔRA of compound relative to ΔRA of DAMGO) × 10” value is reported as under −14.83 and the ΔRA of compound was under −2.96. For the same molecule, on human OPRM1 (μ, MOR) [2], the maximal effect (Emax) came out at 86.9% and the negative-log EC50 (pEC50) was 6.14. On human OPRM1 (μ, MOR) [3], the maximal effect (Emax) is 6.18% and the negative-log EC50 (pEC50) is under 4.00.
For `CN(C)C(CNC(=O)N1CCCc2ccccc21)c1ccsc1` (stereo not shown) [Compound 9a, N-(2-(dimethylamino)-2-(thiophen-3-yl)ethyl)-3,4-dihydroquinoline-1(2H)-carboxamide hydrochloride], on human OPRM1 (μ, MOR) [1], the “Bias Factor (ΔRA of compound relative to ΔRA of DAMGO) × 10” value is −6.20 and the ΔRA of compound is given as −2.10. Also, on human OPRM1 (μ, MOR) [2], the maximal response (Emax) turned out to be 75.7% and the pEC50 is 6.29. Moreover, on human OPRM1 (μ, MOR) [3], the maximum response (Emax) amounted to 5.11% and the pEC50 is 5.36.
`CN(C)C(CNC(=O)NC1CCc2ccccc2C1)c1ccsc1` (stereo not shown) [Compound 10a, 1-(2-(Dimethylamino)-2-(thiophen-3-yl)ethyl)-3-(1,2,3,4-tetrahydronaphthalen-2-yl)urea hydrochloride]: on human OPRM1 (μ, MOR) [1], the “Bias Factor (ΔRA of compound relative to ΔRA of DAMGO) × 10” value is under −14.83 and the ΔRA of compound is recorded as under −2.96. Further, on human OPRM1 (μ, MOR) [2], the maximal effect (Emax) turned out to be 85.5% and the pEC50 is 8.40. Besides, at human OPRM1 (μ, MOR) [3], the Emax stood at 3.33% and the pEC50 is under 4.00.
On to `Cc1ccc2c(c1)CN(C(=O)NCC(c1ccsc1)N(C)C)C2` (stereo not shown) [Compound 12a, N-(2-(Dimethylamino)-2-(thiophen-3-yl)ethyl)-5-methylisoindoline-2-carboxamide hydrochloride], for which, on human OPRM1 (μ, MOR) [2], the Emax was 6.33% and the pEC50 was under 4.00. In addition, on human OPRM1 (μ, MOR) [3], the Emax is 2.16% and the pEC50 is under 4.00.
`CN(C)C(CNC(=O)N1CC[C@@H](c2ccccc2)C1)c1ccsc1` (stereo partly shown) [Compound 41]: the Emax at human OPRM1 (μ, MOR) [2] was 9.6%; at human OPRM1 (μ, MOR) [3], under 1%. Moreover, the pEC50 at human OPRM1 (μ, MOR) [2] is under 4.00; on human OPRM1 (μ, MOR) [3], under 4.00.
Regarding `CN(C)C(CNC(=O)N[C@@H]1CCc2ccccc2C1)c1ccsc1` (stereo partly shown) [Compound 47], on human OPRM1 (μ, MOR) [1], the “Bias Factor (ΔRA of compound relative to ΔRA of DAMGO) × 10” value was under −14.83 and the ΔRA of compound was under −2.96.
In the same order, the values of `CN(C)C(CNC(=O)N[C@@H]1CCc2ccccc2C1)c1ccsc1` (stereo partly shown) [Compound 48] are under −14.83 and under −2.96.
`C[C@@H](NC(=O)[C@@H](N)Cc1ccc(O)cc1)C(=O)NCC(=O)N(C)[C@@H](Cc1ccccc1)C(=O)NCCO` [DAMGO, H-Tyr-D-Ala-Gly-NMe-Phe-Gly-OH, reference compound]: the maximal effect (Emax) at human OPRM1 (μ, MOR) [2] amounted to 108%; at human OPRM1 (μ, MOR) [3], 98.3%.
